Reference: patent US8013006B2
pIC50: −log10 of the molar value. Read-outs that look alike come from different tables or passages of the source.

Columns and labels:
HCV replicon = experiment: microbe, parasite or virus in culture; type: cell-based; conditions: for IC50: read-out: Replicon IC5Os μM; for pIC50: read-out: Replicon IC5Os
[1] = Replicon IC50 values are determined by firefly luciferase signal, bicistronic replicon, 2 days
[2] = bicistronic HCV replicon, determined by firefly luciferase signal, cells cultured with compound for 2 days

Compound	pIC50 (HCV replicon; [2])	further results
CCOc1ccc2c(C#N)c(-c3ccc(N(C)S(C)(=O)=O)cc3)n(C)c2c1	–	melting point: 203 to 205 °C
CCCOC(=O)Nc1ccc(-c2c(C#N)c3ccc(OC(F)F)cc3n2CC2CC2)cc1	–	melting point: 125 to 126 °C
CCn1c(-c2ccc(NC(=O)COC)cc2)c(C#N)c2ccc(OC(C)C)cc21	–	melting point: 169 to 173 °C
CCn1c(-c2ccc3c(c2)OCO3)c(C#N)c2ccc(OC)cc21 [Compound 22]	–	IC50 (HCV replicon; Hepatitis C virus, 48 h): 0.5 to 2 µM; melting point: 146 to 149 °C
CCn1c(NC(=O)c2cccc(C)c2)c(C#N)c2ccc(OC)cc21 [Compound 23]	–	IC50 (HCV replicon; Hepatitis C virus, 48 h): < 0.5 µM; melting point: 234 to 235 °C
CCn1c(C#Cc2ccc(CNS(=O)(=O)CC)cc2)c(C#N)c2ccc(OC)cc21 [Compound 157, Ethanesulfonic acid [4-(3-cyano-1-ethyl-6-methoxy-1H-indol-2-ylethynyl)-phenyl]methyl amide]	–	melting point: 149 to 153 °C
CCn1c(-c2ccc(CNS(=O)(=O)CCN3CCOCC3)cc2)c(C#N)c2ccc(OC)cc21 [Compound 668, 2-morpholin-4-yl-ethanesulfonic acid [4-(3-cyano-1-ethyl-6-methoxy-1H-indol-2-yl)-phenyl]methyl amide]	–	melting point: 171 to 174 °C
CCn1c(-c2ccc3[nH]ccc3c2)c(C#N)c2ccc(OC)cc21 [Compound 712]	–	pIC50 (HCV replicon; [1]): < 5.70
N#Cc1cn(CC2CC2)c2cc(OC(F)(F)F)ccc12 [Compound 714]	–	pIC50 (HCV replicon; [1]): 5.70 to 6.30
CCn1c(-c2ccc(NS(C)(=O)=O)cc2)c(C#N)c2ccc(OC(F)(F)F)cc21 [Compound 715]	–	pIC50 (HCV replicon; [1]): > 6.30
COc1ccc2c(C#N)c(-c3ccc(N4CCCS4(=O)=O)cc3)n(CC3CC3)c2c1 [Compound 716, 2-[4-(1,1-dioxidoisothiazolidin-2-yl)phenyl]-1-cyclopropylmethyl-6-methoxy-1H-indole-3-carbonitrile]	–	pIC50 (HCV replicon; Hepatitis C virus, 48 h): 5.70 to 6.30
COc1ccc2c(C#N)c(-c3ccc(S(=O)(=O)NC4CC4)cc3)n(CC3CCCC3)c2c1 [Compound 718]	–	pIC50 (HCV replicon; [1]): 5.70 to 6.30
COc1ccc2c(C#N)c(-c3ccc(S(N)(=O)=O)cc3)n(CC3CCCC3)c2c1 [Compound 719]	–	pIC50 (HCV replicon; [1]): < 5.70
CCn1c(-c2ccc(N3CCCS3(=O)=O)cc2)c(C#N)c2ccc(OCCN3CCCC3)cc21 [Compound 728]	–	pIC50 (HCV replicon; [1]): > 6.30
CCn1c(-c2ccc(N3CCCS3(=O)=O)cc2)c(C#N)c2ccc(OCCN3CCOCC3)cc21 [Compound 730]	–	pIC50 (HCV replicon; [1]): > 6.30
N#Cc1c(-c2ccc(N)cc2)n(CC2CC2)c2cc(OC(F)F)ccc12 [Compound 733]	–	pIC50 (HCV replicon; [1]): < 5.70
COCCOC(=O)Nc1ccc(-c2c(C#N)c3ccc(OC(F)F)cc3n2CC2CC2)cc1 [Compound 739]	–	pIC50 (HCV replicon; [1]): < 5.70
CCNC(=O)Nc1ccc(-c2c(C#N)c3ccc(OC(F)F)cc3n2CC2CC2)cc1 [Compound 740]	–	pIC50 (HCV replicon; [1]): 5.70 to 6.30
CCOC(=O)Nc1cccc(-c2c(C#N)c3ccc(OC(F)F)cc3n2CC2CC2)c1 [Compound 745]	–	pIC50 (HCV replicon; Hepatitis C virus, 48 h): > 6.30
CCCOC(=O)Nc1cccc(-c2c(C#N)c3ccc(OC(F)F)cc3n2CC2CC2)c1 [Compound 746]	–	pIC50 (HCV replicon; [1]): < 5.70
CCCS(=O)(=O)N1CCc2ccc(-c3c(C#N)c4ccc(OC)cc4n3CC)cc21 [Compound 754]	–	pIC50 (HCV replicon; [1]): 5.70 to 6.30
CCn1c(-c2ccc(NC(=O)c3ccno3)cc2)c(C#N)c2ccccc21 [Compound 755]	–	pIC50 (HCV replicon; Hepatitis C virus, 48 h): > 6.30
CCn1c(-c2ccc(NC(=O)c3snnc3C)cc2)c(C#N)c2ccccc21 [Compound 756]	–	pIC50 (HCV replicon; Hepatitis C virus, 48 h): > 6.30
CCC(=O)Nc1ccc(-c2c(C#N)c3ccc(OC(C)C)cc3n2CC)cc1 [Compound 759]	–	pIC50 (HCV replicon; Hepatitis C virus, 48 h): > 6.30
CCn1c(-c2ccc(NC(=O)C3CCC3)cc2)c(C#N)c2ccc(OC(C)C)cc21 [Compound 760]	–	pIC50 (HCV replicon; Hepatitis C virus, 48 h): > 6.30
CCn1c(-c2ccc(NC(=O)c3ccc4nonc4c3)cc2)c(C#N)c2cc(OC)ccc21 [Compound 765]	5.70 to 6.30	–

Compound	pIC50 (HCV replicon; [2])	further results
CCS(=O)(=O)N(C(C)=O)c1ccc(-c2cc3ccc(OC)cc3n2C(=O)OC(C)(C)C)cc1 [Compound 769]	< 5.70	–
CCn1c(-c2cccc(N3CCNC3=O)c2)c(C#N)c2ccc(OC)cc21 [Compound 770]	< 5.70	–
CCCn1c(-c2ccc(N3CCCS3(=O)=O)cc2)c(C#N)c2ccc(OCCOC(C)=O)cc21 [Compound 775]	5.70 to 6.30	–
CCOc1ccc2c(C#N)c(-c3ccc(N4CCNC4=O)cc3)n(CC)c2c1 [Compound 778]	> 6.30	–
CCCn1c(-c2cccc(N3CCCS3(=O)=O)c2)c(C#N)c2ccc(OC)cc21 [Compound 783]	< 5.70	–
CCn1c(N2CCC(NC(=O)OC(C)(C)C)CC2)c(C#N)c2ccc(C(F)(F)F)cc21 [Compound 786]	< 5.70	–
COC(=O)Nc1cccc(-c2c(C#N)c3ccc(OC)cc3n2Cc2ccccc2)c1 [Compound 787]	< 5.70	–
CCCCOC(=O)Nc1cccc(-c2c(C#N)c3ccc(OC)cc3n2Cc2ccccc2)c1 [Compound 788]	< 5.70	–
CCn1c(-c2ccc(NS(=O)(=O)C(C)C)cc2)c(C#N)c2cc(OC)ccc21 [Compound 790]	–	IC50 (HCV replicon; Hepatitis C virus, 48 h): < 0.5 µM
CCn1c(-c2ccc(N)cc2)c(C#N)c2cc(O)ccc21 [Compound 797]	5.70 to 6.30	–
CCn1c(-c2ccc(NC(=O)c3cc(C)on3)cc2)c(C#N)c2ccc(OC(C)C)cc21 [Compound 798]	< 5.70	–
CCCC(=O)Nc1ccc(-c2c(C#N)c3ccc(OC)cc3n2CC)cc1 [Compound 799]	–	IC50 (HCV replicon; Hepatitis C virus, 48 h): < 0.5 µM
CCn1c(-c2ccc(NC(=O)c3ccco3)cc2)c(C#N)c2ccc(OC)cc21 [Compound 803]	< 5.70	–
CCn1c(-c2ccc(NC(=O)c3cc(C)on3)cc2)c(C#N)c2ccc(OC)cc21 [Compound 804]	< 5.70	–
N#Cc1c(-c2ccc(N3CCCC3=O)cc2)n(CC2CC2)c2cc(OC(F)F)ccc12 [Compound 806]	5.70 to 6.30	–
CCCn1c(-c2ccc(N3CCCC3=O)cc2)c(C#N)c2ccc(OC(F)F)cc21 [Compound 808]	5.70 to 6.30	–
CC(C)n1c(-c2ccc(N3CCCC3=O)cc2)c(C#N)c2ccc(OC(F)F)cc21 [Compound 809]	5.70 to 6.30	–
N#Cc1c(-c2ccc(N3CCCC3=O)cc2)n(C2CCC2)c2cc(OC(F)F)ccc12 [Compound 810]	5.70 to 6.30	–
N#Cc1c(-c2ccc(N)cc2)n(C2CCC2)c2cc(OC(F)F)ccc12 [Compound 811]	< 5.70	–
CCCS(=O)(=O)Nc1ccc(-c2c(C#N)c3ccc(OC(F)F)cc3n2C2CCC2)cc1 [Compound 812]	5.70 to 6.30	–
N#Cc1c(-c2ccc(NS(=O)(=O)C3CC3)cc2)n(C2CCC2)c2cc(OC(F)F)ccc12 [Compound 813]	> 6.30	–
CCCNC(=O)Nc1cccc(-c2c(C#N)c3ccc(OC)cc3n2Cc2ccccc2)c1 [Compound 817]	< 5.70	–
CCn1c(-c2cc(N3CCOC3=O)ccc2F)c(C#N)c2ccc(OC(C)C)cc21 [Compound 820]	5.70 to 6.30	–
CCn1c(-c2ccc(F)c(N3CCOC3=O)c2)c(C#N)c2ccc(OC(C)C)cc21 [Compound 821]	< 5.70	–
COCCOC(=O)Nc1ccc(-c2c(C#N)c3ccc(OC(F)F)cc3n2C2CCC2)cc1 [Compound 823]	< 5.70	–
CCCn1c(-c2ccc(NC(=O)OC(C)C)cc2)c(C#N)c2ccc(OC(F)F)cc21 [Compound 824]	< 5.70	–

Compound	pIC50 (HCV replicon; [2])	further results
CCCn1c(-c2ccc(NC(=O)OCCOC)cc2)c(C#N)c2ccc(OC(F)F)cc21 [Compound 825]	< 5.70	–
CCCn1c(-c2ccc(NC(=O)OCCF)cc2)c(C#N)c2ccc(OC(F)F)cc21 [Compound 826]	5.70 to 6.30	–
N#Cc1c(-c2ccc(N3CCCS3(=O)=O)cc2)[nH]c2cc(OC(F)(F)F)ccc12 [Compound 829]	5.70 to 6.30	–
CCn1c(-c2ccc(OC(F)F)cc2)c(C#N)c2ccc(NS(=O)(=O)CC)cc21 [Compound 830]	5.70 to 6.30	–
CCCS(=O)(=O)Nc1ccc2c(C#N)c(-c3ccc(OCC)cc3)n(CC)c2c1 [Compound 836]	< 5.70	–
CCOc1ccc(-c2c(C#N)c3ccc(NS(=O)(=O)C4CC4)cc3n2CC)cc1 [Compound 837]	< 5.70	–
CCn1c(-c2ccc(N(C)S(=O)(=O)C3CC3)cc2)c(C#N)c2ccc(OCCF)cc21 [Compound 840]	< 5.70	–
CCCS(=O)(=O)N1CCN(c2c(C#N)c3ccc(C(F)(F)F)cc3n2CC)CC1 [Compound 841]	< 5.70	–
CCn1c(N2CCN(S(=O)(=O)c3ccccc3)CC2)c(C#N)c2ccc(C(F)(F)F)cc21 [Compound 843]	< 5.70	–
CCCn1c(-c2ccc(NC(=O)NC(C)C)cc2)c(C#N)c2ccc(OC)cc21 [Compound 846]	5.70 to 6.30	–
CCCCNC(=O)Nc1ccc(-c2c(C#N)c3ccc(OC)cc3n2CCC)cc1 [Compound 847]	5.70 to 6.30	–
CCCn1c(-c2ccc(NC(=O)OC)cc2)c(C#N)c2ccc(OC)cc21 [Compound 849]	5.70 to 6.30	–
CCCn1c(-c2ccc(N(CC)S(=O)(=O)CC)cc2)c(C#N)c2ccc(OC)cc21 [Compound 852]	5.70 to 6.30	–
CCn1c(-c2ccc(C(=O)N3CC3)cc2)c(C#N)c2ccc(OC)cc21 [Compound 853]	> 6.30	–
CCn1c(-c2ccc(NC(=O)C3CC3)cc2)c(C#N)c2ccccc21 [Compound 854]	–	IC50 (HCV replicon; Hepatitis C virus, 48 h): 0.5 to 2 µM
CCn1c(-c2ccc(NC(=O)C(C)C)cc2)c(C#N)c2ccccc21 [Compound 855]	–	IC50 (HCV replicon; Hepatitis C virus, 48 h): 0.5 to 2 µM
CCn1c(-c2ccc(NC(=O)CCl)cc2)c(C#N)c2cc(OC)ccc21 [Compound 856]	< 5.70	–
CCn1c(-c2ccc(NC(=O)COC)cc2)c(C#N)c2cc(OC)ccc21 [Compound 857]	5.70 to 6.30	–
CCn1c(-c2ccc(NC(=O)C(C)C)cc2)c(C#N)c2cc(OC)ccc21 [Compound 858]	–	IC50 (HCV replicon; Hepatitis C virus, 48 h): < 0.5 µM
CCn1c(-c2ccc(C(=O)NC)cc2)c(C#N)c2cc(OC)ccc21 [Compound 860]	5.70 to 6.30	–
CCn1c(-c2ccc(C(=O)N3CC3)cc2)c(C#N)c2cc(OC)ccc21 [Compound 861]	–	IC50 (HCV replicon; Hepatitis C virus, 48 h): 0.5 to 2 µM
CCn1c(-c2ccc(C(=O)N3CCC3)cc2)c(C#N)c2cc(OC)ccc21 [Compound 862]	< 5.70	–
CCn1c(-c2ccc(N3CCOC3=O)cc2)c(C#N)c2ccc(OC)cc21 [Compound 863]	–	IC50 (HCV replicon; Hepatitis C virus, 48 h): 0.5 to 2 µM
CCn1c(-c2cccc(N3CCOC3=O)c2)c(C#N)c2ccc(OC)cc21 [Compound 864]	5.70 to 6.30	–
CCCn1c(-c2ccc(N3CCCS3(=O)=O)cc2)c(C=O)c2ccc(OC)cc21 [Compound 865]	< 5.70	–
